These results are taken from patent US20130085106A1, “METHODS AND FORMULATIONS FOR OXYTOCIN TREATMENT OF SUBSTANCE USE, PSYCHIATRIC AND OTHER DISORDERS” (THE UNIVERSITY OF NORTH CAROLINA AT CHAPEL HILL, priority 2010, published 2013).

Ends that are not written are not given here.

Series [1] concerns subjects with schizophrenia. The experiment in a line: Expanded two-week intranasal oxytocin study in schizophrenia, 25 subjects (Example 8). The class given is in vivo, human. To be noted: for Brüne 2nd false belief, M / Brüne 3nd false belief, M / Brüne deception, M / PANSS general score, M / PANSS negative score, M / PANSS positive score, M / PANSS social items mean (suspiciousness, hostility, social withdrawal passive/active, uncooperativeness), M / PANSS total score, M / Paranoia Scale, M / Trustworthiness task (ratings of untrustworthy faces), M: N = 14. The text has this:
(§1) This was a randomized, double blind, placebo-controlled 2-week treatment trial. Screening of each subject included a review of psychiatric and medical history, physical examination, an ECG, and blood and urine collection for standard laboratory tests. Within 1 week after screening, baseline social cognition measures were obtained followed by psychiatric ratings. Daily intranasal treatments were initiated after baseline assessments. Social cognition measures and psychiatric ratings were repeated beginning 50 minutes after the AM dose of study medication on treatment day 14. The social cognition instruments were the Brüne Theory of Mind Picture Stories Task (Brüne, (2003) Social cognition and behaviour in schizophrenia. In Brüne, Ribbert, Schiefenhövel (eds.) The social brain-evolution and pathology. John Wiley & Sons; Chichester, pp. 277-313) and the Trustworthiness Task (Adolphs et al., Nature 393: 470-474 (1998)). Psychiatric measures included the Positive and Negative Symptom Scale (PANSS) (Kay et al., Schizophr. Bull. 13: 261-276 (1987))) and the Paranoia Scale (Fenigstein & Vanable, J. Pers. Soc. Psych. 62: 129-138 (1992))). The first 10 subjects were studied as inpatients on a clinical research unit and the last 10 subjects were studied in an outpatient research clinic. Blood and urine laboratory tests, ECGs and body weights were obtained at screening and treatment day 14 in all subjects and also on treatment days 3 and 7 in inpatients.
(§2) Subjects remained on their pre-study medication regimen and doses throughout the treatment trial. They self-administered intranasal study drug twice daily; before breakfast and before dinner. Each dose consisted of six 0.1 ml insufflations (alternating between the left and right nostril) of oxytocin spray containing approximately 24 international units of oxytocin (SYNTOCINON® Spray, Novartis) or placebo. Outpatient compliance with test treatments was monitored by weighing spray vials before they were dispensed and after the morning dose on treatment day 14.
We have expanded our double blind, placebo-controlled pilot study described in Example 7 to include 25 subjects with schizophrenia in which we compared the effects of 14 days of twice daily intranasal oxytocin (24 IU/dose, N=14) vs. placebo (N=11) administration on PANSS (Positive and Negative Symptom Scale) total and PANSS item scores, subject self-ratings on the Paranoia Scale and performance on social cognition tests (the Brüne Theory of Mind Picture Stories Task and the Trustworthiness Task). As in the smaller study, all subjects' symptoms and psychotropic medication regimens were stable for ≧1 month prior to the treatment trial. Medication doses remained the same during the study period.
Because of our interest in oxytocin effects on social function in schizophrenia, we focused our statistical analysis on an a priori subset of PANSS items: P6 (suspiciousness/persecution [paranoia]), P7 (hostility), N4 (passive/apathetic social withdrawal), G8 (uncooperativeness) and G16 (active social avoidance). These items were used as inclusion criteria for this study (see description in Example 7). Values on these items are highly correlated in our sample (Cronbach's alpha=0.84).

The subject of series [2] is patients with paranoid or undifferentiated schizophrenia. The experiment in a line: Randomized, double blind, placebo-controlled 2-week intranasal oxytocin trial in schizophrenia (Example 7). It is filed as in vivo, human.
Description: Twenty-three subjects were initially enrolled; 2 dropped out before randomization to treatment and 1 dropped out early because they developed an upper respiratory infection; the remaining 20 completed the protocol and constitute our study sample. Inclusion criteria were: 18-55 years of age, DSM-IV diagnosis of paranoid or undifferentiated schizophrenia ≧1 year, PANSS total score ≧60, PANSS suspiciousness/persecutory item score ≧4 or 3 on this item and ≧3 on at least one other social behavior-relevant PANSS item (hostility, passive/apathetic social withdrawal, uncooperativeness, active social withdrawal), treatment with one or more standard antipsychotic medications, stability of medication doses and symptoms ≧1 month.
as §1, §2
All dependent variables were examined for normality and skewness prior to analyses. We compared oxytocin and placebo group means using an unpaired t test for the following baseline variables: demographic, psychiatric history and diagnosis, inpatient versus outpatient status, social cognition and psychiatric measures. We performed a paired t test within each treatment group examining changes from baseline to two weeks on the following variables: biological (laboratory test values, vital signs), social cognition measures (Brüne Task, Trustworthiness Task), and psychiatric measures (PANSS total and subscales, Paranoia Scale). To compare the treatment groups over time on social cognition and psychiatric variables, we used analysis of covariance controlling for the baseline measure of the dependent variable.

The subject of series [3] is alcohol dependent patients. Put plainly: Double-blind, placebo controlled trial of twice daily intranasal oxytocin for alcohol withdrawal (Example 2). The class given is in vivo, human. The text has this:
This is a double-blind, placebo controlled comparison of the efficacy of twice daily intranasal administration of oxytocin and placebo (saline) in reducing alcohol withdrawal symptoms, the number of bouts of withdrawal during which symptoms are of sufficient magnitude requiring lorazepam treatment (see definitions below) and the amount of lorazepam required to resolve withdrawal bouts. Treatment group assignment are random within each sex. Subjects are patients admitted to UNC Hospitals or the UNC CTRC for medical detoxification. Each treatment group is composed of up to 40 subjects. The study statistician constructs a randomization plan to randomize 80 subjects to 2 groups of 40 subjects each with a blocksize of 4. This is a permuted blocksize as this is a blind study.
Informed consent is obtained the morning after admission to the UNC Hospitals medical units or before the outpatient screening evaluation before admission to the UNC CTRC. After consent is obtained, subjects are randomly assigned to a treatment group (oxytocin or placebo). Prior to receiving their first intranasal treatment, an ECG is obtained and blood drawn to obtain serum for assay of cytokine and allopregnanolone concentrations. Subjects also rate their symptoms using the Alcohol Withdrawal Symptom Checklist (AWSC, Pittman et al., Alcohol Clin. Exp. Res. 31: 612-618 (2007)) prior to receiving their first test dose. These procedures are done/overseen by research nurses or physicians. Subjects usually receive their first intranasal test dose between 1000 and 1200 hours, which consists of 6 insufflations of SYNTOCINON® Spray (approximately 24 IU) or placebo, with each insufflation given 30 seconds apart and alternating between nostrils. Test doses taken again at 1700 hr later that day (Admission Day 1) and at 0900 and 1700 hr on Admission Days 2 and 3. Oxytocin test treatments are administered from 5 ml intranasal spray vials designed to deliver 0.1 ml metered volume per insufflation. The placebo treatments are administered from 60 ml intranasal spray vials (each containing 30 ml of solution) also designed to deliver 0.1 ml metered volume per insufflation. Vials containing oxytocin and placebo spray are blind labeled by the UNC Investigational Drug Service. Research nurses or physicians oversee subject self-administration of all intranasal test doses. After enrollment on Admission day 1 and in the morning on Admission days 2 and 3, subjects are given multiple copies of the AWSC questionnaire and requested to complete one each time the unit nurses do CIWA ratings. These questionnaires are retrieved by research staff the following morning. Shortly after the morning test dose on Admission days 2 and 3, subjects complete the Alcohol Craving Visual Analog Scales (ACVAS), the Penn Alcohol Craving Scale (PACS), and the Profile of Mood States (McNair et al., (1971) EDITS manual for the profile of mood states. San Diego, Calif. Educational and Industrial Testing Service). In addition, a consumption diary is administered and given to the subject to quantify the amount of alcohol participants have been consuming prior to admission in the study. On Days 2 and 3, research nurses also draw (and subsequently process) blood serum samples to assay cytokine and allopregnanolone concentrations shortly after the morning test dose. Additional blood is drawn after the morning test dose on admission day 2 to obtain serum for tests to be run (magnesium, Cl, Ca, Na, K, BUN, creatinine, and GGT). Another ECG is also obtained shortly after the morning test treatment on Admission day 2. Research staff retrieves on a daily basis CIWA ratings and vital sign measurements obtained on each subject from their electronic medical record.
In all subjects, lorazepam doses are administered PO or IV (if subjects cannot take medication PO) whenever CIWA ratings are ≧12. CIWA ratings are obtained 1 hr after the initial dose of lorazepam and another dose administered if CIWA ratings ≧10. […]

For series [4] the following is noted: Burbach et al., Eur. J. Pharmacol. 94: 125-131 (1983); cited from earlier work.
Where [5] appears, read: ANCOVA controlling for baseline, 14-day treatment.

For the compound `CC[C@H](C)[C@@H]1NC(=O)[C@H](Cc2ccc(O)cc2)NC(=O)[C@@H](N)CSSC[C@@H](C(=O)N2CCC[C@H]2C(=O)N[C@@H](CC(C)C)C(=O)NCC(N)=O)NC(=O)[C@H](CC(N)=O)NC(=O)[C@H](CCC(N)=O)NC1=O` [Oxytocin, oxytocin], the “declines in PANSS positive symptom subscale scores compared to the Placebo group” value in series [1] (ANOVA, F=3.10, p=0.0923) is on record as “trends toward significantly greater declines”. Also, the “declines in PANSS social items mean scores compared to the Placebo group” value in series [1] (ANOVA, F=3.15, p=0.0898) is given as “trends toward significantly greater declines”. Moreover, in series [1] (ANOVA, F=4.29, p=0.05), the “decline in PANSS total score compared to the Placebo group” value was “significantly greater decline”. Further, in series [1] (Baseline), the “Brüne 2nd false belief, M” value turned out to be 1.93; the “Brüne 3nd false belief, M” value is reported as 1.93; the “Brüne deception, M” value turned out to be 2.43; the “PANSS general score, M” value stood at 38.21. Also, in series [1] (Baseline), the “PANSS negative score, M” value was 20.36; the “PANSS positive score, M” value turned out to be 19.79; the “PANSS social items mean (suspiciousness, hostility, social withdrawal passive/active, uncooperativeness), M” value was determined as 2.91; the “PANSS total score, M” value was found to be 79.00. Moreover, in series [1] (Baseline), the “Paranoia Scale, M” value came to 48.00 and the “Trustworthiness task (ratings of untrustworthy faces), M” value is reported as −15.71. The “PANSS total score, M” value in series [1] (Tx Day 14, 24 IU/dose intranasal twice daily) came to 69.21. Moreover, in series [1] (Tx Day 14), the “Brüne 2nd false belief, M” value is on record as 2.29; the “Brüne 3nd false belief, M” value came out at 2.43; the “Brüne deception, M” value amounted to 2.86; the “PANSS general score, M” value was 34.07. For the same compound, in series [1] (Tx Day 14), the “PANSS negative score, M” value is 18.00; the “PANSS positive score, M” value was determined as 17.14; the “PANSS social items mean (suspiciousness, hostility, social withdrawal passive/active, uncooperativeness), M” value came to 2.39; the “Paranoia Scale, M” value is reported as 45.00. For the same compound, the “Trustworthiness task (ratings of untrustworthy faces), M” value in series [1] (Tx Day 14) is listed as −10.36. For the same compound, in series [2] (setting [5]), the “PANSS general subscale scores, LS mean” value was 34.34 and the “PANSS total scores, Least squared (LS) mean” value is 70.56. In series [2] (ANCOVA, oxytocin vs placebo), the “group differences in change over the treatment period for other PANSS or social cognition variables” value is given as “no group differences”. In series [2] (ANCOVA, F=3.78, p=0.069), the “decline in PANSS general subscale scores compared to placebo” value is recorded as “trend toward a significantly greater decline”. Also, in series [2] (ANCOVA, F=4.60, p=0.047), the “decline in PANSS total scores compared to the placebo group” value is “significantly greater decline”. Further, the “change in other Brüne Task measures (second order belief, third order false belief, recognition of cheating)” value in series [2] (baseline to treatment day 14) is “no changes that approached significance”. In addition, the adverse events entry in series [3] (3 days of protocol, all 10 subjects) was “no unexpected adverse events”. Moreover, the “Total lorazepam (mg) required to control withdrawal symptoms, Mean” value in series [3] (3 days of protocol, intranasal approx. 24 IU twice daily, N=6) was 2.33 mg. Also, in series [3] (Day 1, intranasal approx. 24 IU twice daily, N=6), the “Mean CIWA Day 1” value worked out at 2.40. For the same compound, in series [3] (Day 1, self-rating, N=6), the “Mean AWSC Day 1” value worked out at 6.17. Besides, the “Mean ACVAS Day 2” value in series [3] (Day 2, 100 mm Alcohol Craving Visual Analog Scale, N=6) turned out to be 33.83. Also, the “Mean CIWA Day 2” value in series [3] (Day 2, N=6) was determined as 0.81. In series [3] (Day 2, Penn Alcohol Craving Scale, N=6), the “Mean PACS Day 2” value came out at 13.33. In addition, the “Mean AWSC Day 2” value in series [3] (Day 2, self-rating, N=6) was found to be 5.40. Besides, the “Mean ACVAS Day 3” value in series [3] (Day 3, 100 mm Alcohol Craving Visual Analog Scale, N=6) turned out to be 11.23. Further, the “Mean CIWA Day 3” value in series [3] (Day 3, N=6) worked out at 1.52. Further, in series [3] (Day 3, Penn Alcohol Craving Scale, N=6), the “Mean PACS Day 3” value turned out to be 9.33. Further, in series [3] (Day 3, self-rating, N=6), the “Mean AWSC Day 3” value was 3.78. For the same compound, the “subjects that required no lorazepam treatment at all” value in series [3] (oxytocin treatment group, 3-day detoxification) is recorded as 4 of the 6.
In the case of “oxytocin fragment 4-9: biologically active fragment of oxytocin, reported to be more potent than the full-length molecule (QNCPLG; ends and bridges not checked; UniProt P01178 23-28, looked up, fragment)”, the “potency relative to the full-length molecule” value in series [4] is listed as “more potent than the full-length molecule”.
